EP2815749A1, “Solid form of 4-amino-2-(2,6-dioxopiperidine-3-yl)isoindoline-1,3-dione having specified X-ray diffraction pattern” (IP Gesellschaft für Management mbH, priority 2013, dated 2014)

How the values were obtained:
[1] = Polymorph screening: solvent evaporation; format: physicochemical; conditions: form obtained
Method: (§1) Polymorph screening: A polymorph screen was conducted in the methylethyl ketone (MEK)/ water solvent systems, as well as in the acetonitrile (ACN), ACN/water and isopropyl acetate solvent systems. Polymorph screening techniques included crash cooling, solvent evaporation, antisolvent addition, and slurry experiments. Slurry experiments were performed on an IKA RCT hot plate with magnetic stirring set to 710 rpm. The temperature was controlled with an IKA ETS-D5 thermocouple. Solvent volumes were measured and transferred with Gibson Pipetteman volumetric pipettes. New forms that were identified as solvates were subjected to desolvation under two potential conditions: (1) drying in a vacuum oven at 40°C and (2) sitting undisturbed under ambient conditions in a fume hood. Physical characterization of all forms proceeded by X-ray powder diffraction (XRPD) and thermogravimetric analysis (TGA).
A saturated solution was made by slurrying Compound (VII), Form XX in 5 mL of solvent (ACN, isopropyl acetate (IP Ac), or MEK) or 1 mL of solvent for the MEK/Water solvent system. After 24 hours, the residual solids were removed by filtration. The saturated solutions were then subjected to rapid solvent evaporation by blowing nitrogen (N2) gas over the samples with a Pierce Model 18780 Reacti-Vap evaporating unit for four hours. The product precipitated as a white powder and the form was analyzed by XRPD and TGA.

[2] = target: T1, AF508-CFTR (Homo sapiens, UniProt P13569, DEL508-508); assay: Membrane potential optical assay for potentiation (FLIPR III); format: cell-based; conditions: relative efficacy
T1 construct: expressed in transfected cells
T1 sequence (P13569 with tags, fused parts or gaps DEL508-508): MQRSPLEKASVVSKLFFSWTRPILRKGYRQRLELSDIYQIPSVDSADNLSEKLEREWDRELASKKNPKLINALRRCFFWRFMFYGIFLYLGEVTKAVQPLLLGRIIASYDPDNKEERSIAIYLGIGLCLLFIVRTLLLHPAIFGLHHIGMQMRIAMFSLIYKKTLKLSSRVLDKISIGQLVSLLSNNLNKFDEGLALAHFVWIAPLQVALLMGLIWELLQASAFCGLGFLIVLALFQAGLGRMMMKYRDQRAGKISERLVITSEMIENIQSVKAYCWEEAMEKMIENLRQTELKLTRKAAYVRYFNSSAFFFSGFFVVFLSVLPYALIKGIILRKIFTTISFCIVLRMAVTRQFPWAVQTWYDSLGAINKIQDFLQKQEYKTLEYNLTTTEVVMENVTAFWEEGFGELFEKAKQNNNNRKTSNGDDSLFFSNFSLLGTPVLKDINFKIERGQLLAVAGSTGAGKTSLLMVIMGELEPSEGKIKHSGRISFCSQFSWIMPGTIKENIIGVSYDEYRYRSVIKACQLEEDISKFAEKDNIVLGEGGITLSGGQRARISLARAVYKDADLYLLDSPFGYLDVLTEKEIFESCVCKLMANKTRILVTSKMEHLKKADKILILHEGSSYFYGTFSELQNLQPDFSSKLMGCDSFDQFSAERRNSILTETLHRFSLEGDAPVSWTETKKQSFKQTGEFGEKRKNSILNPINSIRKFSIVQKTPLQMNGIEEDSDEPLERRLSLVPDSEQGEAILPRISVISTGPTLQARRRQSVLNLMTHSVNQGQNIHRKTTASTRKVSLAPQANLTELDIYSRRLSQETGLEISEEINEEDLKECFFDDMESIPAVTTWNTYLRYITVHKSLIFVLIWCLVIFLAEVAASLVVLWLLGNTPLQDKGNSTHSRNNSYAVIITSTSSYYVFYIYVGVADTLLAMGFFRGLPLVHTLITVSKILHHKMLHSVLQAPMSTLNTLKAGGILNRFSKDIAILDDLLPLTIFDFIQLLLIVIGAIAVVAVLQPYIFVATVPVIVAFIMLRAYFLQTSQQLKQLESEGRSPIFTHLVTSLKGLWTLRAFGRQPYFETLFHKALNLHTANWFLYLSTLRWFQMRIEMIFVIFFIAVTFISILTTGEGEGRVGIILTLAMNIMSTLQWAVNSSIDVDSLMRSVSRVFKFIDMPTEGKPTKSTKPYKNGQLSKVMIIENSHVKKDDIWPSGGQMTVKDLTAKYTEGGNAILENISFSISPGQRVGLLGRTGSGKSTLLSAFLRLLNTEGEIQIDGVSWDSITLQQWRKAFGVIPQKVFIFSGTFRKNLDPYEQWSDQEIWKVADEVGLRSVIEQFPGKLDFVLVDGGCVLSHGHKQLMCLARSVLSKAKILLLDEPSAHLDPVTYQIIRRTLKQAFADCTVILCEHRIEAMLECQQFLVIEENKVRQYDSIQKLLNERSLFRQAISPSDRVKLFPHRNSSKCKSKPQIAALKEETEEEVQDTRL
Excerpt: SINGLE CRYSTAL […] OF FORM T: Single crystal analysis was done on a crystal of Form T ({drug7r}) as described above. […] The driving force for the response is the creation of a chloride ion gradient in conjunction with channel activation by a single liquid addition step after the cells have previously been treated with compounds and subsequently loaded with a voltage sensing dye. Identification of Potentiator Compounds: To identify potentiators of AF508-CFTR, a double-addition HTS assay format was developed. […] The driving force for the response is a CI" ion gradient in conjunction with channel activation with forskolin in a single liquid addition step using a fluorescent plate reader such as FLIPR III after the cells have previously been treated with potentiator compounds (or DMSO vehicle control) and subsequently loaded with a redistribution dye. […] HBE grown on Costar® Snapwell™ cell culture inserts were mounted in an Using chamber (Physiologic Instruments, Inc., San Diego, CA), and the transepithelial resistance and short-circuit current in the presence of a basolateral to apical CI" gradient (Isc) were measured using a voltage-clamp system (Department of Bioengineering, University of Iowa, IA). […]

[3] = Polymorph screening: crash cooling; format: physicochemical
Method: as §1
Experiment 1: Crash Cooling: A saturated solution of Compound (VII), Form XX was made by preparing 1 mL slurries using acetonitrile (ACN), ACN- water (75:25), methylethyl ketone (MEK), or MEK-water (99:1, 90:10, or 80:20) in vials. After 24 hours in capped HPLC vials, the slurries were then filtered to remove residual solids. Approximately 2 additional milligrams of Compound (VII) was added to each vial containing a saturated solution. Next, the vials were heated to 70°C with stirring until all of the material was completely dissolved. Immediately after, the samples were submerged into an ice bath. The product, which precipitated as a white powder within 1 minute, was isolated by filtration and analyzed by XRPD and TGA.

[4] = Polymorph screening: antisolvent addition; format: physicochemical; conditions: form obtained
Method: as §1
Experiment 3: Antisolvent Addition: A saturated solution of Compound (VII), Form XX was made by slurrying either in 5 mL of solvent in the ACN, IP Ac, and MEK solvent systems, 2 mL total solvent for IP Ac/water, or 1 mL total solvent for the MEK/water solvent systems. After 24 hours, the residual solids were removed by filtration 20 mL of antisolvent was then quickly added to the saturated solutions to induce precipitation. Hexane was used as the antisolvent in the MEK and IP Ac solvent systems, and MTBE was used as the antisolvent in the ACN solvent systems, as a consequence of the immiscibility between ACN and hexane. The product precipitated as a white powder and the form was analyzed by XRPD and TGA. Table 9.

[5] = Solvent System Acetonitrile/H2O

SMILES: CC(C)(C)c1cc(C(C)(C)C)c(NC(=O)c2c[nH]c3ccccc3c2=O)cc1O [Compound (VII), N-[2,4-bis(1,1-dimethylethyl)-5-hydroxyphenyl]-1,4-dihydro-4-oxoquinoline-3-carboxamide]
- Solvent Evaporation [1, 5]: Form F
- Solvent Evaporation ([1]; Solvent System IPAc): Form G Semi-crystalline
- Solvent Evaporation ([1]; Solvent System IPAc/H2O): Form H
- Solvent Evaporation ([1]; Solvent System MEK): Form I
- Solvent Evaporation ([1]; Solvent System MEK/H2O (80:20)): Form E
- Solvent Evaporation ([1]; Solvent System MEK/H2O (90:10)): Form E
- Solvent Evaporation ([1]; Solvent System MEK/H2O (99:1)): Form J
- Solvent Evaporation ([1]; Solvent System Water): not soluble
- % Activity [2]: ++ ("++" means between 25% to 100%)
- Solvate Polymorph ([3]; Solvent System Acetonitrile): Form D
- Solvate Polymorph [3, 5]: Form D
- Solvate Polymorph ([3]; Solvent System MEK): Form E
- Solvate Polymorph ([3]; Solvent System MEK/H2O (80:20)): Form E
- Solvate Polymorph ([3]; Solvent System MEK/H2O (90:10)): Form E
- Solvate Polymorph ([3]; Solvent System MEK/H2O (99:1)): Form E
- Solvate Polymorph ([3]; Solvent System Water): not soluble
- Antisolvent Addition ([4]; Solvent System IPAc/H2O): Form T
- Antisolvent Addition ([4]; Solvent System MEK): Form K
- Antisolvent Addition ([4]; Solvent System MEK/H2O (80:20)): Form K
- Antisolvent Addition ([4]; Solvent System MEK/H2O (90:10)): Form K
- Antisolvent Addition ([4]; Solvent System MEK/H2O (99:1)): Form K
- Antisolvent Addition ([4]; Solvent System Water): not soluble
